Activity calls are given as the source filed them.
Experiments:
[1] = target: T1, Glycine--tRNA ligase (Homo sapiens, UniProt P41250)
T1 sequence (P41250 whole entry): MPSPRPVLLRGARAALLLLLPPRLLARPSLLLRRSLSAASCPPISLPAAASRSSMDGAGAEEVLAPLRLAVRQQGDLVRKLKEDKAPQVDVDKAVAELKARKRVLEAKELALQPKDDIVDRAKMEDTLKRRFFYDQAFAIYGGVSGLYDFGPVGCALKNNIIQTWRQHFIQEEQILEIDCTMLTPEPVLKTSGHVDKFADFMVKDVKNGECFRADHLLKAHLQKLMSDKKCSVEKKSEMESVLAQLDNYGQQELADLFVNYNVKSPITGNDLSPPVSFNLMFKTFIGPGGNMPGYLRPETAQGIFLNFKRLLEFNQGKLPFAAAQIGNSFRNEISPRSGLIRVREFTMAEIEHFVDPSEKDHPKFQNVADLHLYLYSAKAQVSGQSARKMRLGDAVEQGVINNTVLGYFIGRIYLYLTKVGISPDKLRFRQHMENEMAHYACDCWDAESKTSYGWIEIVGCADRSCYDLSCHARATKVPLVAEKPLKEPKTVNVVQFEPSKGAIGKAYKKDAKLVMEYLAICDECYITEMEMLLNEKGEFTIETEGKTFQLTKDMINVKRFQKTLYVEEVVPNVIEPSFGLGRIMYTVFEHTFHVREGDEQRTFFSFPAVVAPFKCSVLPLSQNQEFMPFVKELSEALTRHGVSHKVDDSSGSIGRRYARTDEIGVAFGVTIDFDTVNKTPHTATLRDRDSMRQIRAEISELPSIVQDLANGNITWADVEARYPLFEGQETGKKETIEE

[2] = target: T2, Beta-adrenergic receptor kinase 1 (Homo sapiens, UniProt P25098)
T2 sequence (P25098 whole entry): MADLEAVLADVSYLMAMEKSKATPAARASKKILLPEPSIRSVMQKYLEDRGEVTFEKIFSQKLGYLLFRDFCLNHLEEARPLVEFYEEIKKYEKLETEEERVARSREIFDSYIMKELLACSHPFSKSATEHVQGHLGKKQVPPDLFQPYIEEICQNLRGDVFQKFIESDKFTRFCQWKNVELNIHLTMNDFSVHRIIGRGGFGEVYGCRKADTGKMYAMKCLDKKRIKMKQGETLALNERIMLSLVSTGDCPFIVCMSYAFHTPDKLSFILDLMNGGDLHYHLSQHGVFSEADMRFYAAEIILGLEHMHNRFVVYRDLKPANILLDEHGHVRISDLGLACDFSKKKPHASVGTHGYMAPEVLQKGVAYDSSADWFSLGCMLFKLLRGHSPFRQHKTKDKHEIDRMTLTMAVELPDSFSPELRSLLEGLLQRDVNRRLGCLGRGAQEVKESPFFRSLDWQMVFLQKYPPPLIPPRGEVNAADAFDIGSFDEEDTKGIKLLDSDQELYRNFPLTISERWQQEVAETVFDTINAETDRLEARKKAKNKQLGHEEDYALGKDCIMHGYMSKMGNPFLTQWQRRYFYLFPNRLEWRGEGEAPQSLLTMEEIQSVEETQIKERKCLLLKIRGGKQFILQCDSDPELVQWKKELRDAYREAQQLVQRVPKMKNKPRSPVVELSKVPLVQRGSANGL

[3] = target: T3, Cytochrome c1, heme protein, mitochondrial (Homo sapiens, UniProt P08574)
T3 sequence (P08574 whole entry): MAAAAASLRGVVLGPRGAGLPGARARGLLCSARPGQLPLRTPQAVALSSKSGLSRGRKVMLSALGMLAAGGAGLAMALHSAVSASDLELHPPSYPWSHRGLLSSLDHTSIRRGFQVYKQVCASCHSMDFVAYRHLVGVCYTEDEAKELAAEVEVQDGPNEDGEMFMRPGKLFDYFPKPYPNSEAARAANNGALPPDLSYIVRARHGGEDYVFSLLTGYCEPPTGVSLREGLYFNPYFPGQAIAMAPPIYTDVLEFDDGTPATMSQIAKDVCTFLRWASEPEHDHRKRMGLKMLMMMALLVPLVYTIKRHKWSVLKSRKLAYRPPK

[4] = target: Citron Rho-interacting kinase (Homo sapiens, UniProt O14578)
Sequence of Citron Rho-interacting kinase (O14578 whole entry): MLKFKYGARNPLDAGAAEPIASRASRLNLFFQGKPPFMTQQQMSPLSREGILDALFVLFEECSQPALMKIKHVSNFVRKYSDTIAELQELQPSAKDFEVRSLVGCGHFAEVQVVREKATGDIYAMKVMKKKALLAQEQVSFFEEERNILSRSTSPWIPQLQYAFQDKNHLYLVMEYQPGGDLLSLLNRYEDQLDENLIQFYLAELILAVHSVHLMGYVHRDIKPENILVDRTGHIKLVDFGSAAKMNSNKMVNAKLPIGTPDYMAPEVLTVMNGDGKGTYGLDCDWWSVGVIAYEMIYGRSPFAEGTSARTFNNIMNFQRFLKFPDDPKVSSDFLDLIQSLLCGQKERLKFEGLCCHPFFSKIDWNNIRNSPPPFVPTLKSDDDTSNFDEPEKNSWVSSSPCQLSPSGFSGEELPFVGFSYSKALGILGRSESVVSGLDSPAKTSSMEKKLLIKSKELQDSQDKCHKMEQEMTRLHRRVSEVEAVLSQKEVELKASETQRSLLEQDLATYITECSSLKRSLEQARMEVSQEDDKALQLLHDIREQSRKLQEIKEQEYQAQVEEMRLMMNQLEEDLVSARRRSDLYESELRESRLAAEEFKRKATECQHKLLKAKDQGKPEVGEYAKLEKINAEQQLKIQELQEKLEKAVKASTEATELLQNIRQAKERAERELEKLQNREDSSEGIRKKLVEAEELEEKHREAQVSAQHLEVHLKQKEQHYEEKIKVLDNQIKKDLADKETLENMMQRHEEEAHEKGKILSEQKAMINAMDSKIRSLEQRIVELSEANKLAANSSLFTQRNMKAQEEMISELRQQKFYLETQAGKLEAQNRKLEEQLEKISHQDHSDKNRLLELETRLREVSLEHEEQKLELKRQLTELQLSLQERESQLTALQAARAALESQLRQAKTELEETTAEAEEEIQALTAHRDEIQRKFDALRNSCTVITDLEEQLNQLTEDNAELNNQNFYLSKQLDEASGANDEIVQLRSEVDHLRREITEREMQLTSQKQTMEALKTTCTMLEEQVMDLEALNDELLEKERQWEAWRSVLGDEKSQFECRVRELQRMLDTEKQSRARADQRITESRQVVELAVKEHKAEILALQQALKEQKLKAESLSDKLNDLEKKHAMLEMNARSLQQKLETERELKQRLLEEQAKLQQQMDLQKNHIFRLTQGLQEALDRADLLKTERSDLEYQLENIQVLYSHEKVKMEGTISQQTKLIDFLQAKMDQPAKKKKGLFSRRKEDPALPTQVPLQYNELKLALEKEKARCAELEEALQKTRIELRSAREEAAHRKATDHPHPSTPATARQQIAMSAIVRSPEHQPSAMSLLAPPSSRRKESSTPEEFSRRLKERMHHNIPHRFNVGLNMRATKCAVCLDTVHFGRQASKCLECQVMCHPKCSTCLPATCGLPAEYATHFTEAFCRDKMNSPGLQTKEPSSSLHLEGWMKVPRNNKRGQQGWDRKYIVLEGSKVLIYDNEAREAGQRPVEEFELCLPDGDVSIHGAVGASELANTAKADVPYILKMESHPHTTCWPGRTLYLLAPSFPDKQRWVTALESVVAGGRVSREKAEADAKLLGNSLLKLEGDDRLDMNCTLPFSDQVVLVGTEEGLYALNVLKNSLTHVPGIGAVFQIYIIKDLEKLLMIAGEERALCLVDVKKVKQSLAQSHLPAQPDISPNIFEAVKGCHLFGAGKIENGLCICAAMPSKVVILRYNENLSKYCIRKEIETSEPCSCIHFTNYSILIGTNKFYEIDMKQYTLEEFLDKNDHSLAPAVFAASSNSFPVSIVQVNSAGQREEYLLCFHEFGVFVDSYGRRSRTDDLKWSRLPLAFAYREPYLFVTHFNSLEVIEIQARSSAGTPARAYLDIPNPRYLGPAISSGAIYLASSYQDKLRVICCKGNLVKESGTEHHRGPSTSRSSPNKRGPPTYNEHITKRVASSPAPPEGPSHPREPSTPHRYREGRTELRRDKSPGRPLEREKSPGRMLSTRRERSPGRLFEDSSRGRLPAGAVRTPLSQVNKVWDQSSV

[5] = target: T4, ATP-dependent RNA helicase DDX42 (Homo sapiens, UniProt Q86XP3)
T4 sequence (Q86XP3 whole entry): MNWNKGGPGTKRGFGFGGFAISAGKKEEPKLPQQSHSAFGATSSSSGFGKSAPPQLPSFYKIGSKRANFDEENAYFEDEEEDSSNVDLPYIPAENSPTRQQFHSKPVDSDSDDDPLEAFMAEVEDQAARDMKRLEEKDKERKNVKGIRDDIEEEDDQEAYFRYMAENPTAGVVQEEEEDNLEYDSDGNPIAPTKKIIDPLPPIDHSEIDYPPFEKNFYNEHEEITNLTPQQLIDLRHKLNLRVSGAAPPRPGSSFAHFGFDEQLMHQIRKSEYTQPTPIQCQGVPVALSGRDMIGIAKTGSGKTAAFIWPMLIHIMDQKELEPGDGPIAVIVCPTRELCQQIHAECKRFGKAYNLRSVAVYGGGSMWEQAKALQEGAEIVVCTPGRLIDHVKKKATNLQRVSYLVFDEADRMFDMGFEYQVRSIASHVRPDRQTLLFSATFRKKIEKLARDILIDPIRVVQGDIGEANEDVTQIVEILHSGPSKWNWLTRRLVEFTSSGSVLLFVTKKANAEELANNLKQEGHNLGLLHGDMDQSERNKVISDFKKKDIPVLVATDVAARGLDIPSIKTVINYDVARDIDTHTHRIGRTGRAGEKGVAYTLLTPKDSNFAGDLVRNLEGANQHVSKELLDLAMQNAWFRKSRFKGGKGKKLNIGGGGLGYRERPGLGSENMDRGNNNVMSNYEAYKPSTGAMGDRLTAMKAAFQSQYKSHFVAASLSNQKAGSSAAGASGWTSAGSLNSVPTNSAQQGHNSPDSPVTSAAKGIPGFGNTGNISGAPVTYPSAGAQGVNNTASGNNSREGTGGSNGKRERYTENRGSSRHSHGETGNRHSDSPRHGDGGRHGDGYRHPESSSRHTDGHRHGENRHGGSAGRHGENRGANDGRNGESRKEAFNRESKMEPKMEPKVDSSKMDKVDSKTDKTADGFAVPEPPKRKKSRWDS
Note: in the data inactive means no Kd found up to 30 µM.

O=C(c1ccc(F)c(F)c1Nc1ccc(I)cc1F)N1CC(O)([C@@H]2CCCCN2)C1 [COBIMETINIB]
Kd [1]: > 30 µM (inactive) | Kd [2]: > 30 µM (inactive) | Kd [3]: > 30 µM (inactive) | Kd [4]: > 30 µM (inactive) | Kd [5]: > 30 µM (inactive)

Cc1nc(N)sc1-c1ccnc(Nc2ccc(N3CCOCC3)cc2)n1 [CYC-116]
Kd [1]: > 30 µM (inactive) | Kd [2]: > 30 µM (inactive) | Kd [3]: > 30 µM (inactive) | Kd [4]: 1.1 µM (active) | Kd [5]: > 30 µM (inactive)

CCc1cnn2c(NCc3ccc[n+]([O-])c3)cc(N3CCCC[C@H]3CCO)nc12 [DINACICLIB]
Kd [1]: > 30 µM (inactive) | Kd [2]: > 30 µM (inactive) | Kd [3]: > 30 µM (inactive) | Kd [4]: > 30 µM (inactive) | Kd [5]: > 30 µM (inactive)

COC(=O)N[C@@H](C)CNc1nccc(-c2cn(C(C)C)nc2-c2cc(Cl)cc(NS(C)(=O)=O)c2F)n1 [ENCORAFENIB]
Kd [1]: > 30 µM (inactive) | Kd [2]: > 30 µM (inactive) | Kd [3]: > 30 µM (inactive) | Kd [4]: > 30 µM (inactive) | Kd [5]: > 30 µM (inactive)

Cc1cc(Nc2cc(N3CCN(C)CC3)nc(/C=C/c3ccccc3)n2)n[nH]1 [ENMD-2076]
Kd [1]: > 30 µM (inactive) | Kd [2]: > 30 µM (inactive) | Kd [3]: > 30 µM (inactive) | Kd [4]: > 30 µM (inactive) | Kd [5]: > 30 µM (inactive)

CO[C@H]1C[C@@H]2CC[C@@H](C)[C@@](O)(O2)C(=O)C(=O)N2CCCC[C@H]2C(=O)O[C@H]([C@H](C)C[C@@H]2CC[C@@H](OCCO)[C@H](OC)C2)CC(=O)[C@H](C)/C=C(\C)[C@@H](O)[C@@H](OC)C(=O)[C@H](C)C[C@H](C)/C=C/C=C/C=C/1C [EVEROLIMUS]
Kd [1]: > 30 µM (inactive) | Kd [2]: > 30 µM (inactive) | Kd [3]: > 30 µM (inactive) | Kd [4]: > 30 µM (inactive) | Kd [5]: > 30 µM (inactive)

COCCNCc1ccc(-c2cc3nccc(Oc4ccc(NC(=S)NC(=O)Cc5ccc(F)cc5)cc4F)c3s2)nc1 [GLESATINIB]
Kd [1]: > 30 µM (inactive) | Kd [2]: > 30 µM (inactive) | Kd [3]: > 30 µM (inactive) | Kd [4]: > 30 µM (inactive) | Kd [5]: > 30 µM (inactive)

CC[C@H](Nc1ncnc2[nH]cnc12)c1nc2cccc(F)c2c(=O)n1-c1ccccc1 [IDELALISIB]
Kd [1]: > 30 µM (inactive) | Kd [2]: > 30 µM (inactive) | Kd [3]: > 30 µM (inactive) | Kd [4]: > 30 µM (inactive) | Kd [5]: > 30 µM (inactive)

Cn1cc(-c2ccc3nnc(C(F)(F)c4ccc5ncccc5c4)n3n2)cn1 [JNJ-38877605]
Kd [1]: > 30 µM (inactive) | Kd [2]: > 30 µM (inactive) | Kd [3]: > 30 µM (inactive) | Kd [4]: > 30 µM (inactive) | Kd [5]: > 30 µM (inactive)

COC(=O)[C@@]1(O)C[C@H]2O[C@]1(C)n1c3ccccc3c3c4c(c5c6ccccc6n2c5c31)C(=O)NC4 [K-252A]
Kd [1]: > 30 µM (inactive) | Kd [2]: > 30 µM (inactive) | Kd [3]: > 30 µM (inactive) | Kd [4]: > 30 µM (inactive) | Kd [5]: > 30 µM (inactive)

COc1cc2nccc(Oc3ccc(NC(=O)NC4CC4)c(Cl)c3)c2cc1C(N)=O [LENVATINIB]
Kd [1]: > 30 µM (inactive) | Kd [2]: > 30 µM (inactive) | Kd [3]: > 30 µM (inactive) | Kd [4]: > 30 µM (inactive) | Kd [5]: > 30 µM (inactive)

Cc1c(F)cc(C(=O)NC2CC2)cc1-c1ccc(C(=O)NCC(C)(C)C)cn1 [LOSMAPIMOD]
Kd [1]: > 30 µM (inactive) | Kd [2]: > 30 µM (inactive) | Kd [3]: > 30 µM (inactive) | Kd [4]: > 30 µM (inactive) | Kd [5]: > 30 µM (inactive)

Cn1cc(-c2ccc(F)c(C(F)(F)F)c2)nc1C1CCN(c2ncnc3[nH]ncc23)CC1 [LY-2584702]
Kd [1]: > 30 µM (inactive) | Kd [2]: > 30 µM (inactive) | Kd [3]: > 30 µM (inactive) | Kd [4]: > 30 µM (inactive) | Kd [5]: > 30 µM (inactive)

O=C(O)[C@]1(Cc2cccc(Nc3nccs3)n2)CC[C@@H](Oc2cccc(Cl)c2F)CC1 [MK-5108]
Kd [1]: > 30 µM (inactive) | Kd [2]: > 30 µM (inactive) | Kd [3]: > 30 µM (inactive) | Kd [4]: > 30 µM (inactive) | Kd [5]: > 30 µM (inactive)

C1=C/COCc2cc(ccc2OCCN2CCCC2)Nc2nccc(n2)-c2cccc(c2)COC/1 [PACRITINIB]
Kd [1]: > 30 µM (inactive) | Kd [2]: > 30 µM (inactive) | Kd [3]: > 30 µM (inactive) | Kd [4]: > 30 µM (inactive) | Kd [5]: > 30 µM (inactive)
